Here are results for six compounds from ChEMBL document CHEMBL4024727, “Synthesis and antimycobacterial screening of new thiazolyl-oxazole derivatives” (Eur J Med Chem, 2017).

By MIC is commonly meant the smallest concentration in the dilution series that meets the test's criterion for growth inhibition. Read a high MIC as a need for much substance. What is called IC50 is the concentration at which inhibition is half-maximal. Lower therefore signals greater potency in that assay. The MIC90 is an inhibitory concentration at the 90% level, which refers to growth in some studies and to a panel of isolates in others. The low end stands for higher susceptibility, the high end for lower susceptibility.

Converted amounts (≈) assume the structure as drawn.

Common to all, as to type: functional
Assay [1] deals with Pseudomonas fluorescens. As to the kind of experiment: Growth inhibition of Pseudomonas fluorescens NCIM 2059 at 30 ug/ml measured after 8 hrs relative to control. Conditions: NCIM 2059, 8 h, read-out: GI.
Assay [2] deals with Escherichia coli. As to the kind of experiment: Growth inhibition of Escherichia coli NCIM 2576 at 10 ug/ml measured after 8 hrs relative to control. Conditions: NCIM 2576, 8 h, read-out: GI.
Assay [3] deals with Bacillus subtilis. As to the kind of experiment: Growth inhibition of Bacillus subtilis NCIM 2162 at 10 ug/ml measured after 12 hrs relative to control. Conditions: NCIM 2162, 12 h, read-out: GI.
Assay [4] concerns Staphylococcus aureus. Description: Antibacterial activity against Staphylococcus aureus NCIM 2602 measured after 12 hrs. Conditions: NCIM 2602, 12 h.
The test system of assay [5] is Bacillus subtilis. As to the kind of experiment: Growth inhibition of Bacillus subtilis NCIM 2162 at 30 ug/ml measured after 12 hrs relative to control. Conditions: NCIM 2162, 12 h, read-out: GI.
Assay [6] concerns Staphylococcus aureus. Description: Growth inhibition of Staphylococcus aureus NCIM 2602 at 1 ug/ml measured after 12 hrs relative to control. Conditions: NCIM 2602, 12 h, read-out: GI.
The subject of assay [7] is Escherichia coli. As to the kind of experiment: Growth inhibition of Escherichia coli NCIM 2576 at 1 ug/ml measured after 8 hrs relative to control. Conditions: NCIM 2576, 8 h, read-out: GI.
In assay [8] the test system is Bacillus subtilis. As to the kind of experiment: Growth inhibition of Bacillus subtilis NCIM 2162 at 1 ug/ml measured after 12 hrs relative to control. Conditions: NCIM 2162, 12 h, read-out: GI.
Assay [9] has as its system Escherichia coli. As to the kind of experiment: Growth inhibition of Escherichia coli NCIM 2576 at 30 ug/ml measured after 8 hrs relative to control. Conditions: NCIM 2576, 8 h, read-out: GI.
For assay [10], the system named is Staphylococcus aureus. As to the kind of experiment: Growth inhibition of Staphylococcus aureus NCIM 2602 at 10 ug/ml measured after 12 hrs relative to control. Conditions: NCIM 2602, 12 h, read-out: GI.
Assay [11] deals with Escherichia coli. As to the kind of experiment: Antibacterial activity against Escherichia coli NCIM 2576 measured after 8 hrs. Conditions: NCIM 2576, 8 h.
Assay [12] relates to Pseudomonas fluorescens. As to the kind of experiment: Growth inhibition of Pseudomonas fluorescens NCIM 2059 at 10 ug/ml measured after 8 hrs relative to control. Conditions: NCIM 2059, 8 h, read-out: GI.
For assay [13], the system named is Pseudomonas fluorescens. As to the kind of experiment: Antibacterial activity against Pseudomonas fluorescens NCIM 2059 measured after 8 hrs. Conditions: NCIM 2059, 8 h.
Assay [14] concerns Staphylococcus aureus. Description: Growth inhibition of Staphylococcus aureus NCIM 2602 at 30 ug/ml measured after 12 hrs relative to control. Conditions: NCIM 2602, 12 h, read-out: GI.
In assay [15] the test system is Bacillus subtilis. As to the kind of experiment: Antibacterial activity against Bacillus subtilis NCIM 2162 measured after 12 hrs. Conditions: NCIM 2162, 12 h.
Assay [16] concerns Pseudomonas fluorescens. Description: Growth inhibition of Pseudomonas fluorescens NCIM 2059 at 1 ug/ml measured after 8 hrs relative to control. Conditions: NCIM 2059, 8 h, read-out: GI.
Assay [17] concerns Mycobacterium tuberculosis. Description: Growth inhibition of Mycobacterium bovis BCG ATCC 35743 at 1 ug/ml by nitrate reductase based two-fold dilution assay relative to control. Conditions: BCG str. ATCC 35743, read-out: GI.
Assay [18] deals with Mycobacterium tuberculosis. Description: Antitubercular activity against Mycobacterium bovis BCG ATCC 35743 dormant stage by nitrate reductase based two-fold dilution assay. Conditions: BCG str. ATCC 35743.
Assay [19] concerns Mycobacterium tuberculosis. Description: Growth inhibition of Mycobacterium bovis BCG ATCC 35743 at 30 ug/ml by nitrate reductase based two-fold dilution assay relative to control. Conditions: BCG str. ATCC 35743, read-out: GI.
Assay [20] concerns Mycobacterium tuberculosis. Description: Growth inhibition of Mycobacterium bovis BCG ATCC 35743 at 10 ug/ml by nitrate reductase based two-fold dilution assay relative to control. Conditions: BCG str. ATCC 35743, read-out: GI.
Assay [21] deals with Mycobacterium tuberculosis. As to the kind of experiment: Growth inhibition of Mycobacterium tuberculosis H37Ra ATCC 25177 at 10 ug/ml by XTT dye based two-fold dilution method relative to control. Conditions: read-out: GI. For orientation: Tetrazolium assays rely on reduction of a dye to a coloured formazan, in cell work by metabolically active cells.
Assay [22] deals with Mycobacterium tuberculosis. As to the kind of experiment: Antitubercular activity against Mycobacterium tuberculosis H37Ra ATCC 25177 dormant stage by XTT dye based two-fold dilution method.
For assay [23], the system named is Mycobacterium tuberculosis. As to the kind of experiment: Growth inhibition of Mycobacterium tuberculosis H37Ra ATCC 25177 at 3 ug/ml by XTT dye based two-fold dilution method relative to control. Conditions: read-out: GI.
The test system of assay [24] is Mycobacterium tuberculosis. Description: Growth inhibition of Mycobacterium tuberculosis H37Ra ATCC 25177 at 30 ug/ml by XTT dye based two-fold dilution method relative to control. Conditions: read-out: GI.

Turning to `CC1(C)S[C@@H]2[C@H](NC(=O)[C@H](N)c3ccccc3)C(=O)N2[C@H]1C(=O)O` [AMPICILLIN], the inhibition of growth at 30 µg/mL amounted to 98.8% with Pseudomonas fluorescens [1], 96.8% in the assay on Bacillus subtilis [5], 100% with Escherichia coli [9] and 99.4% with Staphylococcus aureus [14]. Also, the inhibition of growth at 10 µg/mL with Escherichia coli [2] is 97.9%; with Bacillus subtilis [3], 94.5%; in the assay with Staphylococcus aureus [10], 98.9%; with Pseudomonas fluorescens [12], 97.7%. Further, the MIC against Staphylococcus aureus [4] worked out at 2.86 µM (≈ 0.999 µg/mL); against Escherichia coli [11] it was 4.18 µM (≈ 1.46 µg/mL); in the assay with Pseudomonas fluorescens [13] it was 12.5 µM (≈ 4.36 µg/mL); with Bacillus subtilis [15], 29.2 µM (≈ 10.2 µg/mL). Besides, the inhibition of growth at 1 µg/mL was found to be 98.2% in the assay on Staphylococcus aureus [6], 97.5% with Escherichia coli [7], 90% in the assay on Bacillus subtilis [8] and 96.4% in the assay on Pseudomonas fluorescens [16].
Consider `Cc1nc(-c2ccc(F)cc2)oc1-c1csc(-c2cccc(Cl)c2)n1`, for which the inhibition of growth at 30 µg/mL in the assay with Pseudomonas fluorescens [1] worked out at 48.3%; with Bacillus subtilis [5], 50.8%; in the assay with Escherichia coli [9], 49.5%; in assay [19], 32%; in the assay on Staphylococcus aureus [14], 48.1%; in assay [24], 32%. The inhibition of growth at 10 µg/mL in the assay with Escherichia coli [2] turned out to be 40.5%; with Bacillus subtilis [3], 40.6%; with Staphylococcus aureus [10], 35.7%; with Pseudomonas fluorescens [12] it was 38.3%; in assay [20], 24%; in [21], 29%. Also, the minimum inhibitory concentration (MIC) against Staphylococcus aureus [4], against Escherichia coli [11], against Pseudomonas fluorescens [13] and with Bacillus subtilis [15] was greater than 100 µM in each case. For the same compound, the inhibition of growth at 1 µg/mL in the assay with Staphylococcus aureus [6] is 28.5%; in the assay on Escherichia coli [7] it was 23.4%; with Bacillus subtilis [8], 28.8%; in assay [17] it was 23%; in the assay on Pseudomonas fluorescens [16], 24.8%. In addition, the IC50 in [18] and in assay [22] was greater than 100 µM in each case. The MIC90 in [18] and in [22] was greater than 100 µM in each case. Also, in assay [23], the inhibition of growth at 3 µg/mL was found to be 29%.
In the case of `Cc1nc(-c2ccc(F)cc2)oc1-c1csc(-c2ccc(Br)cc2)n1`, the inhibition of growth at 30 µg/mL is 68.3% in the assay with Pseudomonas fluorescens [1]; 68.2% with Bacillus subtilis [5]; 69% in the assay with Escherichia coli [9]; 42% in assay [19]; 67.8% in the assay with Staphylococcus aureus [14]; 54% in assay [24]. For the same compound, the inhibition of growth at 10 µg/mL was 60.7% with Escherichia coli [2]; 51.8% in the assay with Bacillus subtilis [3]; 56.6% with Staphylococcus aureus [10]; 54.2% in the assay with Pseudomonas fluorescens [12]; 36% in assay [20]; 45% in assay [21]. Besides, the MIC in the assay with Staphylococcus aureus [4], in the assay with Escherichia coli [11], against Pseudomonas fluorescens [13] and in the assay on Bacillus subtilis [15] was greater than 100 µM in each case. Besides, the inhibition of growth at 1 µg/mL is 44.1% in the assay with Staphylococcus aureus [6]; 48.9% in the assay with Escherichia coli [7]; 46.5% with Bacillus subtilis [8]; 28% in assay [17]; 48.6% in the assay with Pseudomonas fluorescens [16]. Besides, the half-maximal inhibitory concentration (IC50) in [18] and in assay [22] was greater than 100 µM throughout. Besides, the MIC90 in assay [18] and in assay [22] was greater than 100 µM throughout. The inhibition of growth at 3 µg/mL in assay [23] is 43%.
On to `Cc1nc(-c2ccc(F)cc2)oc1-c1csc(Cc2ccc(Cl)cc2)n1`, for which the inhibition of growth at 30 µg/mL in the assay with Pseudomonas fluorescens [1] was 20.9%; in the assay on Bacillus subtilis [5] it was 27.6%; with Escherichia coli [9], 21%; in [19] it was 42%; in the assay on Staphylococcus aureus [14], 21.1%; in assay [24] it was 39%. Also, the inhibition of growth at 10 µg/mL with Escherichia coli [2] turned out to be 16.1%; in the assay on Bacillus subtilis [3], 13.9%; in the assay with Staphylococcus aureus [10] it was 14.1%; in the assay with Pseudomonas fluorescens [12], 20.1%; in assay [20], 32%; in assay [21], 25%. Further, the minimum inhibitory concentration (MIC) against Staphylococcus aureus [4], in the assay on Escherichia coli [11], in the assay with Pseudomonas fluorescens [13] and with Bacillus subtilis [15] was greater than 100 µM each time. Besides, the inhibition of growth at 1 µg/mL in the assay with Staphylococcus aureus [6] was determined as 5.76%; in the assay on Escherichia coli [7] it was 7.55%; in the assay with Bacillus subtilis [8] it was 9.95%; in [17], 24%; in the assay with Pseudomonas fluorescens [16], 4.37%. The 50% inhibitory concentration (IC50) in [18] and in [22] was greater than 100 µM throughout. The MIC90 in assay [18] and in assay [22] was greater than 100 µM in each case. Moreover, in [23], the inhibition of growth at 3 µg/mL worked out at 9%.
In the case of `Cc1ccc(-c2nc(-c3oc(-c4ccc(F)cc4)nc3C)cs2)cc1`, the inhibition of growth at 30 µg/mL in the assay on Pseudomonas fluorescens [1] came to 20.6%; in the assay on Bacillus subtilis [5], 22%; with Escherichia coli [9], 23.7%; in assay [19], 5%; in the assay with Staphylococcus aureus [14], 22.3%; in assay [24], 5%. Also, the inhibition of growth at 10 µg/mL in the assay on Escherichia coli [2] came to 10.5%; in the assay on Bacillus subtilis [3], 10.7%; with Staphylococcus aureus [10], 12.8%; in the assay on Pseudomonas fluorescens [12], 10.4%; in assay [20], 5%; in assay [21], 3%. The minimum inhibitory concentration (MIC) against Staphylococcus aureus [4], against Escherichia coli [11], in the assay with Pseudomonas fluorescens [13] and in the assay on Bacillus subtilis [15] was greater than 100 µM in each case. Besides, the inhibition of growth at 1 µg/mL in the assay with Staphylococcus aureus [6] amounted to 6.75%; in the assay with Escherichia coli [7], 6.65%; with Bacillus subtilis [8], 7.61%; in assay [17] it was 3%; in the assay with Pseudomonas fluorescens [16], 2.41%. For the same compound, the concentration for half-maximal inhibition (IC50) in [18] and in assay [22] was greater than 100 µM in each case. Besides, the MIC90 in assay [18] and in [22] was greater than 100 µM each time.
For the compound `Cc1nc(-c2ccc(F)cc2)oc1-c1csc(-c2ccc(F)cc2)n1`, the inhibition of growth at 30 µg/mL in the assay with Pseudomonas fluorescens [1] was 63.4%; in the assay with Bacillus subtilis [5], 63.8%; with Escherichia coli [9], 62.5%; in [19], 20%; with Staphylococcus aureus [14], 67%; in assay [24] it was 6%. Moreover, the inhibition of growth at 10 µg/mL came out at 59% with Escherichia coli [2]; 55.3% with Bacillus subtilis [3]; 51.4% with Staphylococcus aureus [10]; 55.3% in the assay on Pseudomonas fluorescens [12]; 6% in [20]; 5% in assay [21]. The MIC with Staphylococcus aureus [4], in the assay on Escherichia coli [11], in the assay on Pseudomonas fluorescens [13] and against Bacillus subtilis [15] was greater than 100 µM each time. For the same compound, the inhibition of growth at 1 µg/mL came out at 43% with Staphylococcus aureus [6]; 43.8% in the assay with Escherichia coli [7]; 40.5% in the assay with Bacillus subtilis [8]; 3% in assay [17]; 40.6% in the assay on Pseudomonas fluorescens [16]. The half-maximal inhibitory concentration (IC50) in assay [18] and in [22] was greater than 100 µM in each case. For the same compound, the MIC90 in [18] and in [22] was greater than 100 µM throughout.
